Results published in paper PMC8920304, “Potent Inhibition of Human Cytochrome P450 3A4 by Biflavone Components from Ginkgo Biloba and Selaginella Tamariscina” (Frontiers in Pharmacology, 2022).

What was measured:
CYP3A4 [1] = biological target: T1, CYP3A4 (Homo sapiens, UniProt P08684); assay: Inhibition of NEN 4-hydroxylation in human liver microsomes (fluorescence high-throughput screening); format: in vitro ADME; details: HLM, NEN probe, mean ± S.D. (n = 3); read-out: IC50 against CYP3A4 (NEN 4-hydroxylation)
T1 construct: The primary incubation mixture contains HLM, potassium phosphate buffer; from tissue; host or cells: human liver microsomes (HLM)
T1 sequence (P08684 whole entry): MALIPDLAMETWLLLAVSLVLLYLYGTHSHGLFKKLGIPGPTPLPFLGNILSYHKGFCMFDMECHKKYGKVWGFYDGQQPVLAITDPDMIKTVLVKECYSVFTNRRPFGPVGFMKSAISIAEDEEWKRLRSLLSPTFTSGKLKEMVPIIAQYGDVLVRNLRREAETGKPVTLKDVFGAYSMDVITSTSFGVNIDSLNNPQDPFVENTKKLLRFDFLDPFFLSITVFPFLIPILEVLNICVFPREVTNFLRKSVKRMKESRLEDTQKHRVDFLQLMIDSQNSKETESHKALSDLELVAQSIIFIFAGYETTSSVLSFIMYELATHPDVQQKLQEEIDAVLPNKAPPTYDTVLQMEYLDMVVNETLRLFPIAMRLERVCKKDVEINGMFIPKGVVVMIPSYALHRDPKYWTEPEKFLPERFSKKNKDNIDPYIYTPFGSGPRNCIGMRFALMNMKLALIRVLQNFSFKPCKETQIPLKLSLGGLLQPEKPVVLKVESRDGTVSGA
Method: The primary incubation mixture contains HLM, potassium phosphate buffer (pH 7.4, 100 mM), G-6-P (10 mM), G-6-P dehydrogenase (1 U/ml), MgCl2 (4 mM), NEN (50 µM), extracts of herbal medicine (20 µg/ml), or components. The incubation duration and HLM protein concentrations were 30 min and 0.05 mg/ml, respectively. The reaction was initiated by the addition of NADP^+ and terminated by the addition of 100 µL ice-cold acetonitrile (ACN). NEN 4-hydroxylation were utilized as the probe reaction for CYP3A4, and fluorescence image of 96-well microplates were measured by a fluorescent image analyzer (GE Amersham Typhoon, Sweden) under the excitation wavelength of 488 nm (E m: 570 ± 15 nm). The formation of NEHN was evaluated by the quantitative analysis of fluorescence signal for individual wells of microplates using the equipment supporting software. The percentage residual activity was calculated from percentage relative value of NEHN formation rate.

CYP3A4 [2] = biological target: T1, CYP3A4; assay: Inhibition kinetic characterization with NEN 4-hydroxylation in HLM; format: in vitro ADME; details: for Type of inhibition: NEN 4-hydroxylation; for Ki: NEN 15-150 µM, 30 min; for ɑ (degree to which inhibitor binding influences enzyme-substrate binding): mixed-inhibition model
Method: Varying concentrations of DGK, GK, IGK, and AMF incubated for 30 min with varying concentrations of NEN (15–150 µM). The high-throughput screening assay was performed, and the inhibition curve was fitted with GraphPad Prism (Version 8.0). The inhibition type was confirmed based on the R square of the following four equations and the Dixon and Lineweaver–Burk plots. The inhibition constant (K i) values were determined using the equations for competitive inhibition (Eq. 1), noncompetitive inhibition (Eq. 2), uncompetitive inhibition (Eq. 3), and mixed inhibition (Eq. 4). v=VmaxS/Km(1+I/Ki)+S (1) v=VmaxS/(Km+S)(1+I/Ki) (2) v=VmaxS/S(1+I/Ki)+Km (3) v=VmaxS/Km(1+I/Ki)+S(1+I/αKi) (4)

CYP3A4 [3] = biological target: T1, CYP3A4; assay: Inhibition of CYP3A4-mediated oxidation of clinical drugs (tamoxifen, gefitinib, ticagrelor) in HLM, LC-MS/MS; format: in vitro ADME; details: 30 min, ± SD
Method: Varying concentrations of DGK, GK, IGK, and AMF incubated for 30 min with gefitinib (10 μM), tamoxifen (20 μM), ticagrelor (30 μM), respectively ([Wang et al., 2020]). The ExionLC AD HPLC system consisted of an autosampler, a quaternary delivery system and a degasser. The chromatograph was equipped with a Luna Omega PS C18 (2.1 × 100 mm, 3 μm) analytical column, and the mobile phase consisted of 0.1% formic acid aqueous solution (A) and ACN (B), and were conducted with a 0.30 ml/min flow rate as follow for the gradient program: 0–1.5 min (10–10% B), 1.5–3.0 min (10–45% B), 3.0–5.0 min (45–90% B). An AB MDS Sciex QTRAP 5500 Mass Spectrometer equipped with an ESI source was used to analyze the target substances. The positive mode was used with N-demethylated tamoxifen (358.0→58.0) and defluorinated gefitinib (445.0→128.0). The relative parameters were set as follows: ion spray voltage, 5500 V; temperature, 550°C; curtain gas (CUR) flow, […]; gas1 and gas2 (nitrogen), 45 and 55 psi. The negative mode was used with dehydroxyethoxylated ticagrelor (477.2→361.1). The relative parameters were set as follows: ion spray voltage, -4500 V; temperature, 550°C; curtain gas flow, […]; gas1 and gas2, 50 and 50 psi. For other parameters, please refer to Supplementary Table S1 in the supplementary data.

CYP3A4 [4] = biological target: T1, CYP3A4; set-up: method as in Ning et al., 2019; details: HLM; ref Ning et al., 2019; cited from earlier work
[5] = gefitinib 10 μM, defluorination, read-out: IC50 toward gefitinib
[6] = tamoxifen 20 μM, N-demethylation, read-out: IC50 toward tamoxifen
[7] = ticagrelor 30 μM, dehydroxyethoxylation, read-out: IC50 toward ticagrelor

Structure (SMILES)	IC50 (CYP3A4 [1])	Type of inhibition (CYP3A4 [2])	Ki (CYP3A4 [2])	ɑ (degree to which inhibitor binding influences enzyme-substrate binding) (CYP3A4 [2])	IC50 (CYP3A4 [3]; [5])	IC50 (CYP3A4 [3]; [6])	IC50 (CYP3A4 [3]; [7])	Inhibition of C4-hydroxylation of NEN in human liver microsomes (in words) (CYP3A4 [4])
COc1ccc(-c2cc(=O)c3c(O)cc(O)cc3o2)cc1-c1c(O)cc(O)c2c(=O)cc(-c3ccc(O)cc3)oc12 [DGK, bilobetin]	162 ± 22 nM	mixed reversible inhibition	70 ± 18 nM	2.98	1720 ± 1 nM	1020 ± 88 nM	3500 ± 34 nM	
Cc1ccc(-c2c(-c3nn(C)c4ncnc(N5CC[C@H](N6CCCCC6)C5)c34)cnn2C)cc1 [CYP3cide]								strongly inhibited

More lines, in order of falling IC50 (CYP3A4 [1]), values ahead:

IC50 (CYP3A4 [1])	Type of inhibition (CYP3A4 [2])	Ki (CYP3A4 [2])	ɑ (degree to which inhibitor binding influences enzyme-substrate binding) (CYP3A4 [2])	IC50 (CYP3A4 [3]; [5])	IC50 (CYP3A4 [3]; [6])	IC50 (CYP3A4 [3]; [7])	Structure (SMILES)	Inhibition of C4-hydroxylation of NEN in human liver microsomes (in words) (CYP3A4 [4])
982 ± 6 nM	mixed reversible inhibition	278 ± 87 nM	2.79	13100 ± 415 nM	4660 ± 236 nM	10200 ± 382 nM	COc1ccc(-c2cc(=O)c3c(O)cc(O)c(-c4cc(-c5cc(=O)c6c(O)cc(O)cc6o5)ccc4OC)c3o2)cc1 [IGK, isoginkgetin]	
186 ± 4 nM	mixed reversible inhibition	101 ± 30 nM	5.55	5200 ± 527 nM	2720 ± 93 nM	2920 ± 47 nM	O=c1cc(-c2ccc(O)c(-c3c(O)cc(O)c4c(=O)cc(-c5ccc(O)cc5)oc34)c2)oc2cc(O)cc(O)c12 [AMF, Amentoflavone]	
106 ± 4 nM	mixed reversible inhibition	34 ± 7 nM	4.56	869 ± 1 nM	478 ± 3 nM	1610 ± 39 nM	COc1cc(O)c2c(=O)cc(-c3ccc(OC)c(-c4c(O)cc(O)c5c(=O)cc(-c6ccc(O)cc6)oc45)c3)oc2c1 [GK, ginkgetin]	
